# US9249517B2, “Process for production of reduced glutathione” (Kyowa Hakko Bio Co., Ltd., priority 2009, dated 2016)
# Key:
# [1] = 25° C., 24-36 hr
# Description: Using an aqueous reduced glutathione solution (100 g/L, pH 2.90) and sulfuric acid, aqueous reduced glutathione solutions (100 g/L) adjusted to pH 0.6, 1.2 and 2.0 were produced.
# Each solution was preserved at 25° C. for 24-36 hr, and the residual amount of reduced glutathione was quantified by high performance liquid chromatography (HPLC) under the following conditions. […] As for the impurity, the total amount of the substances other than reduced glutathione and oxidized glutathione was quantified under the following HPLC conditions, and the concentration (g/L) converted to reduced glutathione was calculated.
# HPLC Conditions • column: Nucleosil 100-5 C18 φ4.6×150 mm • column temperature: 40° C. • buffer: 10% acetonitrile solution containing 0.405% sodium 1-heptanesulfonate (adjusted to pH 2.0 with phosphoric acid) • flow rate: 1.0 mL/min • detector: UV detector (wavelength 210 nm)
# [2] = Solubility of oxidized glutathione in water; type: physicochemical
# Description: Utilizing this characteristic, a solution of oxidized glutathione with concentration beyond saturation solubility can be prepared. […] While the concentration of the supersaturated aqueous oxidized glutathione solution containing a conducting agent other than acid is not limited as long as it can maintain supersaturation state, it is 50 g/L or more, preferably 100 g/L or more, more preferably 150 g/L or more, further preferably 200 g/L or more, most preferably 300 g/L or more.
Molecule,"reduced glutathione residual ratio ([1]; 100 g/L aqueous solution at pH 2.0 or less (pH 0.6, 1.2, 2.0, sulfuric acid) vs pH 2.90, FIG. 1A)","increased amount of impurity due to hydrolysis ([1]; 100 g/L aqueous solution at pH 2.0 or less vs pH 2.90, FIG. 1B)","stability of supersaturation state ([2]; ambient temperature, requires several days before crystallizing)","supersaturation solubility ([2]; once dissolved, aqueous solution)","saturation solubility in water ([2]; water, ambient temperature (25° C.)) [mg/mL]"
N[C@@H](CCC(=O)N[C@@H](CS)C(=O)NCC(=O)O)C(=O)O [reduced glutathione],lower reduced glutathione residual ratio as compared to a solution at pH 2.90,higher increased amount of impurity due to hydrolysis as compared to a solution at pH 2.90,,,
oxidized glutathione,,,stable at ambient temperature,over 300 g/L,≤ 20
